We go through 14 compounds from ChEMBL document CHEMBL1201862, “PubChem BioAssay data set” (2004).

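Results reflect a 48-hour exposure of cells in 96-well plates to compound at five concentrations. GI50 is the concentration that inhibits growth by half.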 The source made the active and inactive calls. No stated cut-off is given here; in the data, active = GI50 up to about 1.1 µM and inactive = higher.

Test systems include A549; ACHN; CCRF-CEM; HCT-116; HCT-15; HOP-62; K562; NCI-H226; NCI-H23; NCI-H522; OVCAR-3; RXF 393; SK-MEL-5; U-251; UO-31; OVCAR-4.
Holding throughout (experiment): DTP human tumour cell line panel, 48 h

In the case of `C=C1CCC2(C(C)=O)COC1(C)O2` (centres undefined), the GI50 is > 100 µM (inactive) in the experiment with A549; > 100 µM (inactive) in the experiment with ACHN; > 100 µM (inactive) in the experiment on CCRF-CEM; > 100 µM (inactive) in the experiment on HCT-116; over 100 µM with HCT-15; > 100 µM (inactive) in the experiment on HOP-62. Moreover, the GI50 is > 100 µM (inactive) in the experiment with K562; > 100 µM (inactive) with NCI-H226; > 10 µM (inactive) in the experiment with NCI-H23; > 10 µM (inactive) in the experiment with NCI-H522; > 100 µM (inactive) in the experiment on OVCAR-3; > 10 µM (inactive) in the experiment on RXF 393. The GI50 in the experiment on SK-MEL-5, in the experiment on U-251 and in the experiment with UO-31 was > 100 µM (inactive) throughout.

For `O=[N+]([O-])c1ccc(-c2ccc(C3=Nn4c(nnc4-c4ccc(Cl)cc4)SC3)o2)cc1`, the GI50 in the experiment on A549 is 47.1 µM (inactive); in the experiment on ACHN, 46.6 µM (inactive); with CCRF-CEM it was > 100 µM (inactive); in the experiment with HCT-116 it was 45 µM (inactive); in the experiment on HCT-15 it was over 92.5 µM; with HOP-62, 31 µM (inactive). Also, the GI50 with K562 is > 100 µM (inactive); in the experiment on NCI-H226, > 100 µM (inactive); in the experiment on NCI-H23, > 53.2 µM (inactive); in the experiment with NCI-H522, > 89.3 µM (inactive); with OVCAR-3 it was 94.8 µM (inactive); in the experiment with OVCAR-4, > 100 µM (inactive). In addition, the GI50 was > 100 µM (inactive) with SK-MEL-5, 37.1 µM (inactive) with U-251 and > 100 µM (inactive) with UO-31.

Turning to `O=C1c2ccccc2C(=O)C12CCc1ccccc12`, the GI50 in the experiment with A549 is > 100 µM (inactive); in the experiment on ACHN, > 100 µM (inactive); with CCRF-CEM, > 100 µM (inactive); in the experiment on HCT-15 it was over 100 µM; with HOP-62, > 100 µM (inactive); in the experiment on K562, 83.4 µM (inactive). Moreover, the GI50 in the experiment on NCI-H23, with OVCAR-3, in the experiment with OVCAR-4, in the experiment on RXF 393, in the experiment with U-251 and in the experiment with UO-31 was > 100 µM (inactive) each time.

In the case of `NC(=O)CCC(NC(=O)Cc1ccccc1)C(=O)O` (centres undefined), the GI50 with A549 was > 2470 µM (inactive); in the experiment on CCRF-CEM it was 2320 µM (inactive); in the experiment with HCT-116, 1090 µM (inactive); with HCT-15 it was over 2470 µM; in the experiment on HOP-62, 1700 µM (inactive); in the experiment on K562 it was > 2470 µM (inactive). Also, the GI50 with NCI-H23 is > 2470 µM (inactive); in the experiment on NCI-H522 it was 841 µM (inactive); in the experiment on OVCAR-3, > 2470 µM (inactive); in the experiment on OVCAR-4, 1390 µM (inactive); in the experiment on RXF 393, 531 µM (inactive); in the experiment on SK-MEL-5 it was > 2470 µM (inactive). The GI50 with U-251 is 2000 µM (inactive); in the experiment with UO-31, 667 µM (inactive).

`C/C(CCc1ccccc1)=N\NC(N)=S`: the GI50 is > 100 µM (inactive) in the experiment with A549; > 100 µM (inactive) in the experiment with ACHN; 75.5 µM (inactive) in the experiment with CCRF-CEM; > 100 µM (inactive) in the experiment on HCT-116; over 100 µM in the experiment on HCT-15; > 100 µM (inactive) in the experiment on HOP-62. Moreover, the GI50 in the experiment on K562 is > 100 µM (inactive); with NCI-H226, > 100 µM (inactive); with NCI-H23, > 100 µM (inactive); with OVCAR-3, > 100 µM (inactive); with OVCAR-4, > 100 µM (inactive); in the experiment on RXF 393, 42.3 µM (inactive). Also, the GI50 with SK-MEL-5 was 95.3 µM (inactive); in the experiment with U-251 it was > 100 µM (inactive); in the experiment with UO-31 it was > 100 µM (inactive).

With `O=c1ncccn1C1C=C(CO)C(O)C1O` (centres undefined), the GI50 with A549 was > 50 µM (inactive); in the experiment on ACHN it was > 50 µM (inactive); in the experiment with CCRF-CEM it was > 50 µM (inactive); in the experiment with HCT-15, over 50 µM; in the experiment with HOP-62 it was > 50 µM (inactive); in the experiment with K562 it was > 50 µM (inactive). Further, the GI50 with NCI-H226, in the experiment with NCI-H23, in the experiment with NCI-H522, in the experiment with OVCAR-3, in the experiment on OVCAR-4 and in the experiment on SK-MEL-5 was > 50 µM (inactive) each time. The GI50 with U-251 and in the experiment on UO-31 was > 50 µM (inactive) throughout.

On to `O=C(c1nc2ccccc2nc1O)C(O)c1ccccc1` (centres undefined), for which the GI50 is 70.3 µM (inactive) in the experiment on A549; 44.6 µM (inactive) with ACHN; 32.7 µM (inactive) in the experiment on CCRF-CEM; > 100 µM (inactive) with HCT-116; 96.2 µM with HCT-15; > 100 µM (inactive) in the experiment with HOP-62. Besides, the GI50 is 40.3 µM (inactive) in the experiment with K562; 76.7 µM (inactive) in the experiment with NCI-H226; > 100 µM (inactive) with NCI-H23; 22.2 µM (inactive) in the experiment with NCI-H522; > 100 µM (inactive) in the experiment with OVCAR-3; 95.3 µM (inactive) with OVCAR-4. The GI50 in the experiment with SK-MEL-5 was > 100 µM (inactive); in the experiment with U-251, 43.7 µM (inactive); in the experiment on UO-31, 94.8 µM (inactive).

In the case of `Cc1ccc(/C=C/C(=O)c2sc(-c3nc(C)c(C(=O)/C=C/c4ccc(C)cc4)s3)nc2C)cc1`, the GI50 is > 100 µM (inactive) in the experiment with A549; > 100 µM (inactive) in the experiment on ACHN; > 100 µM (inactive) in the experiment with CCRF-CEM; over 100 µM with HCT-15; > 100 µM (inactive) in the experiment with HOP-62; > 100 µM (inactive) in the experiment on K562. For the same compound, the GI50 with NCI-H226 is > 100 µM (inactive); in the experiment with NCI-H23, > 100 µM (inactive); in the experiment with NCI-H522 it was 97.5 µM (inactive); in the experiment on OVCAR-3, > 100 µM (inactive); with RXF 393, > 100 µM (inactive); with SK-MEL-5 it was > 100 µM (inactive). The GI50 in the experiment with U-251 and with UO-31 was > 100 µM (inactive) throughout.

Take `COc1c(CC(C)=O)c2ccccc2n1C(C)=O`: the GI50 in the experiment with A549 is > 100 µM (inactive); with ACHN it was > 100 µM (inactive); in the experiment on CCRF-CEM, > 100 µM (inactive); in the experiment with HCT-116 it was > 100 µM (inactive); with HCT-15 it was over 100 µM; with HOP-62, > 100 µM (inactive). The GI50 with K562, in the experiment on NCI-H23, in the experiment with OVCAR-3, in the experiment with OVCAR-4, in the experiment on RXF 393 and with U-251 was > 100 µM (inactive) in each case. The GI50 with UO-31 is > 100 µM (inactive).

For `C/C(CC(=O)Nc1cccc(Cl)c1C)=N\NC(N)=S`, the GI50 in the experiment on A549, in the experiment on CCRF-CEM, in the experiment on HCT-116, in the experiment on HOP-62, in the experiment on K562 and in the experiment with NCI-H226 was > 100 µM (inactive) throughout. In addition, the GI50 with NCI-H23 was > 100 µM (inactive); with NCI-H522, 39.6 µM (inactive); with OVCAR-3 it was > 100 µM (inactive); with RXF 393 it was > 100 µM (inactive); in the experiment on SK-MEL-5, > 100 µM (inactive); in the experiment on U-251, > 100 µM (inactive). Also, the GI50 with UO-31 was > 100 µM (inactive).

On to `CCOP12(OCC)NC(=O)OC1(C(F)(F)F)c1ccccc1O2` (centres undefined), for which the GI50 in the experiment on A549 was > 100 µM (inactive); in the experiment with ACHN, > 100 µM (inactive); in the experiment with CCRF-CEM it was > 100 µM (inactive); in the experiment with HCT-116, > 100 µM (inactive); in the experiment on HCT-15, over 100 µM; in the experiment with K562, > 100 µM (inactive). Besides, the GI50 with NCI-H226, in the experiment on NCI-H23, in the experiment with NCI-H522, in the experiment with OVCAR-3, in the experiment with OVCAR-4 and with RXF 393 was > 100 µM (inactive) in each case. For the same compound, the GI50 with SK-MEL-5 and in the experiment on UO-31 was > 100 µM (inactive) in each case.

Consider `CN(CCO)c1nc(N)cc(=O)[nH]1`, for which the GI50 in the experiment with A549 was > 100 µM (inactive); in the experiment with ACHN, > 100 µM (inactive); with CCRF-CEM, > 100 µM (inactive); in the experiment with HCT-116, > 100 µM (inactive); in the experiment on HCT-15, over 100 µM; in the experiment on HOP-62 it was > 100 µM (inactive). In addition, the GI50 in the experiment with K562, with NCI-H226, in the experiment with NCI-H23, in the experiment with NCI-H522, in the experiment on OVCAR-3 and in the experiment with RXF 393 was > 100 µM (inactive) each time. The GI50 in the experiment on SK-MEL-5, in the experiment with U-251 and in the experiment on UO-31 was > 100 µM (inactive) in each case.

Regarding `Cc1ccc(NC(=O)CC2C(=O)Nc3ccccc3S2(=O)=O)c(C)c1` (centres undefined), the GI50 is 18.7 µM (inactive) in the experiment with A549; 18 µM (inactive) in the experiment with ACHN; 16.4 µM (inactive) with CCRF-CEM; 12.2 µM (inactive) in the experiment with HCT-116; 8.32 µM in the experiment with HCT-15; 4.66 µM (inactive) with K562. Also, the GI50 in the experiment with NCI-H226 is 17 µM (inactive); in the experiment on NCI-H23 it was 17.8 µM (inactive); with NCI-H522, 10.9 µM (inactive); with OVCAR-3, 14.1 µM (inactive); in the experiment on OVCAR-4, 18.7 µM (inactive); in the experiment with RXF 393, 17 µM (inactive). Besides, the GI50 in the experiment on SK-MEL-5 is 4.78 µM (inactive); in the experiment with U-251, 12.7 µM (inactive); in the experiment with UO-31 it was 18.8 µM (inactive).

Turning to `O=C1C(c2ccc(Cl)cc2)=[N+]([O-])c2ccccc21`, the GI50 was 17.5 µM (inactive) in the experiment on A549; 15.2 µM (inactive) in the experiment on ACHN; 4.36 µM (inactive) in the experiment with CCRF-CEM; 14.4 µM (inactive) in the experiment on HCT-116; 11.4 µM in the experiment on HCT-15; 29.4 µM (inactive) with HOP-62. In addition, the GI50 in the experiment with K562 is 13.4 µM (inactive); in the experiment with NCI-H226, 19.1 µM (inactive); in the experiment on NCI-H23 it was 16.1 µM (inactive); in the experiment with NCI-H522 it was 10 µM (inactive); with OVCAR-3, 13.6 µM (inactive); in the experiment with RXF 393, 11 µM (inactive). The GI50 is 13.6 µM (inactive) with SK-MEL-5, 16.7 µM (inactive) in the experiment on U-251 and > 100 µM (inactive) with UO-31.

For orientation: GI50 means the concentration giving 50% growth inhibition.
